Values of other authors as cited in article PMC5963526 (Biochimica et biophysica acta, 2018).

Columns and labels:
[1] = system: retina
[2] = system: rats

Row | Structure (SMILES) | protection of the retina from light damage [1] | protection against LIRD [2]
1 | CC1=C(/C=C/C(C)=C/C=C/C(C)=C\C(=O)O)C(C)(C)CCC1 [13-cis-retinoic acid] | protects the retina from light damage | –
2 | CC(C)(C)[N+]([O-])=Cc1ccccc1 [PBN, a-phenyl-N-tert-butylnitrone] | – | complete protection
